Test results reported in US10947188B2, “Small molecule ferroptosis inducers” (THE TRUSTEES OF COLUMBIA UNIVERSITY IN THE CITY OF NEW YORK, priority 2016, dated 2021).

Columns and labels:
BJeLR = assay: Modulatory profiling: Alamar Blue viability, lethal compound cotreated with death modulator (EC50, AUC); format: cell-based, human; design: AUC, modulator BJ.Gd3+ / AUC, modulator BJ.LNAME / AUC, modulator BJ.Lmin / AUC, modulator BJ.3MA / AUC, modulator BJ.ALLN / AUC, modulator BJ.Boc D / AUC, modulator BJ.CHX / AUC, modulator BJ.Co2+ / AUC, modulator BJ.Nec-1 / AUC, modulator BJ.Pepstatin / AUC, modulator BJ.TLCK / AUC, modulator BJ.atoc / AUC, modulator BJ.trolox / AUC, modulator BJ.zVAD: unit not given beside the values; conditions: BJeLR cells, modulatory profile value (AUC); for AUC, modulator BJ.3MA: lethal compound cotreated with modulator 3MA; for AUC, modulator BJ.ALLN: lethal compound cotreated with modulator ALLN; for AUC, modulator BJ.Boc D: lethal compound cotreated with modulator Boc D; for AUC, modulator BJ.CHX: lethal compound cotreated with modulator CHX; for AUC, modulator BJ.Co2+: lethal compound cotreated with modulator Co2+; for AUC, modulator BJ.DPQ: lethal compound cotreated with modulator DPQ; for AUC, modulator BJ.Gd3+: lethal compound cotreated with modulator Gd3+; for AUC, modulator BJ.LNAME: lethal compound cotreated with modulator LNAME; for AUC, modulator BJ.Lmin/NAD+: lethal compound cotreated with modulator Lmin/NAD+; for AUC, modulator BJ.Lmin: lethal compound cotreated with modulator Lmin; for AUC, modulator BJ.NAD+: lethal compound cotreated with modulator NAD+; for AUC, modulator BJ.NMMA: lethal compound cotreated with modulator NMMA; for AUC, modulator BJ.Nec-1: lethal compound cotreated with modulator Nec-1; for AUC, modulator BJ.Pepstatin: lethal compound cotreated with modulator Pepstatin; for AUC, modulator BJ.TLCK: lethal compound cotreated with modulator TLCK; for AUC, modulator BJ.atoc: lethal compound cotreated with modulator atoc; for AUC, modulator BJ.trolox: lethal compound cotreated with modulator trolox; for AUC, modulator BJ.zVAD: lethal compound cotreated with modulator zVAD
HT-1080 = assay: as above; format: cell-based; design: AUC, modulator HT.3MA / AUC, modulator HT.ALLN / AUC HT.ATA / AUC HT.ActD / AUC HT.BHA / AUC HT.BHT / AUC HT.BocD / AUC HT.CHX / AUC HT.Co2+ / AUC HT.DPQ / AUC HT.EGTA / AUC HT.Lmim / AUC HT.NAD+ / AUC HT.Nec-1 / AUC HT.SP600125 / AUC HT.TLCK / AUC HT.U0126: unit not given beside the values; conditions: for AUC HT.ATA: HT-1080, modulator ATA; for AUC HT.ActD: HT-1080, modulator ActD; for AUC HT.BHA: HT-1080, modulator BHA; for AUC HT.BHT: HT-1080, modulator BHT; for AUC HT.BocD: HT-1080, modulator BocD; for AUC HT.CHX: HT-1080, modulator CHX; for AUC HT.Co2+: HT-1080, modulator Co2+; for AUC HT.CspA: HT-1080, modulator CspA; for AUC HT.DPQ: HT-1080, modulator DPQ; for AUC HT.EGTA: HT-1080, modulator EGTA; for AUC HT.Gd3+: HT-1080, modulator Gd3+; for AUC HT.LNAME: HT-1080, modulator LNAME; for AUC HT.Lmim: HT-1080, modulator Lmim; for AUC HT.NAD+: HT-1080, modulator NAD+; for AUC HT.NMMA: HT-1080, modulator NMMA; for HT.atoc (AUC) / HT.bCarotene (AUC) / HT.deferox (AUC) / HT.digoxin (AUC) / HT.trolox (AUC) / HT.zVAD (AUC): HT-1080; for HT.atoc (AUC): modulator atoc; for HT.bCarotene (AUC): modulator bCarotene; for HT.deferox (AUC): modulator deferox; for HT.digoxin (AUC): modulator digoxin; for HT.trolox (AUC): modulator trolox; for HT.zVAD (AUC): modulator zVAD; for AUC HT.Nec-1: HT-1080, modulator Nec-1; for AUC HT.Pepstatin: HT-1080, modulator Pepstatin; for AUC HT.SP600125: HT-1080, modulator SP600125; for AUC HT.TLCK: HT-1080, modulator TLCK; for AUC HT.U0126: HT-1080, modulator U0126; for AUC, modulator HT.3MA / AUC, modulator HT.ALLN: HT-1080 cells, modulatory profile value (AUC); for AUC, modulator HT.3MA: lethal compound cotreated with modulator 3MA; for AUC, modulator HT.ALLN: lethal compound cotreated with modulator ALLN

CCOC(=O)[C@@H]1[C@@H](c2ccccc2)C(=O)CCN1NC(=O)c1ccccc1 [CIL89]
AUC, modulator BJ.3MA (BJeLR): −0.01648
AUC, modulator BJ.ALLN (BJeLR): −0.1204
AUC, modulator BJ.Boc D (BJeLR): 0.03243
AUC, modulator BJ.CHX (BJeLR): 0.1968
AUC, modulator BJ.Co2+ (BJeLR): 0.01721
AUC, modulator BJ.DPQ (BJeLR): −0.02598
AUC, modulator BJ.Gd3+ (BJeLR): −0.07038
AUC, modulator BJ.LNAME (BJeLR): 0.03646
AUC, modulator BJ.Lmin/NAD+ (BJeLR): 0.04069
AUC, modulator BJ.Lmin (BJeLR): 0.03551
AUC, modulator BJ.NAD+ (BJeLR): −0.03932
AUC, modulator BJ.NMMA (BJeLR): −0.02344
AUC, modulator BJ.Nec-1 (BJeLR): −0.02957
AUC, modulator BJ.Pepstatin (BJeLR): −0.006292
AUC, modulator BJ.TLCK (BJeLR): −0.06676
AUC HT.ATA (HT-1080): 0.05896
AUC HT.ActD (HT-1080): 0.03977
AUC HT.BHA (HT-1080): −0.006147
AUC HT.BHT (HT-1080): −0.1188
AUC HT.BocD (HT-1080): −0.004667
AUC HT.CHX (HT-1080): −0.008693
AUC HT.Co2+ (HT-1080): 0.008377
AUC HT.CspA (HT-1080): −0.06906
AUC HT.DPQ (HT-1080): −0.005287
AUC HT.EGTA (HT-1080): 0.04226
AUC HT.Gd3+ (HT-1080): −0.04594
AUC HT.LNAME (HT-1080): 0.003061
AUC HT.Lmim (HT-1080): 0.02342
AUC HT.NAD+ (HT-1080): 0.02662
AUC HT.NMMA (HT-1080): −0.009041
HT.atoc (AUC) (HT-1080): 0.0671
HT.bCarotene (AUC) (HT-1080): 0.01857
HT.deferox (AUC) (HT-1080): 0.04587
HT.digoxin (AUC) (HT-1080): 0.01146
HT.trolox (AUC) (HT-1080): −0.02147
HT.zVAD (AUC) (HT-1080): 0.03058

COc1cc([C@@H]2c3cc4c(cc3[C@@H](O[C@@H]3O[C@@H]5CO[C@@H](C)O[C@H]5[C@H](O)[C@H]3O)[C@H]3COC(=O)[C@H]23)OCO4)cc(OC)c1O [Etoposide]
AUC, modulator BJ.3MA (BJeLR): −0.06196
AUC, modulator BJ.ALLN (BJeLR): 0.06099
AUC, modulator BJ.Boc D (BJeLR): 0.0612
AUC, modulator BJ.CHX (BJeLR): 0.1255
AUC, modulator BJ.Co2+ (BJeLR): 0.0951
AUC, modulator BJ.DPQ (BJeLR): −0.0469
AUC, modulator BJ.Gd3+ (BJeLR): 0.01317
AUC, modulator BJ.LNAME (BJeLR): 0.004515
AUC, modulator BJ.Lmin/NAD+ (BJeLR): 0.1011
AUC, modulator BJ.Lmin (BJeLR): 0.04682
AUC, modulator BJ.NAD+ (BJeLR): 0.08359
AUC, modulator BJ.NMMA (BJeLR): −0.03678
AUC, modulator BJ.Nec-1 (BJeLR): −0.04354
AUC, modulator BJ.Pepstatin (BJeLR): 0.01632
AUC, modulator BJ.TLCK (BJeLR): 0.01399
AUC, modulator BJ.atoc (BJeLR): −0.01038
AUC, modulator BJ.trolox (BJeLR): −0.01808
AUC, modulator BJ.zVAD (BJeLR): 0.06084
AUC HT.ATA (HT-1080): −0.0363
AUC HT.ActD (HT-1080): −0.09944
AUC HT.BHA (HT-1080): 0.04757
AUC HT.BHT (HT-1080): −0.0005481
AUC HT.BocD (HT-1080): 0.05886
AUC HT.CHX (HT-1080): 0.113
AUC HT.Co2+ (HT-1080): 0.3926
AUC HT.CspA (HT-1080): −0.177
AUC HT.DPQ (HT-1080): 0.006422
AUC HT.EGTA (HT-1080): 0.02457
AUC HT.Gd3+ (HT-1080): 0.02668
AUC HT.LNAME (HT-1080): 0.005444
AUC HT.Lmim (HT-1080): 0.05001
AUC HT.NAD+ (HT-1080): 0.0527
AUC HT.NMMA (HT-1080): 0.01603
AUC HT.Nec-1 (HT-1080): −0.005949
AUC HT.Pepstatin (HT-1080): −0.001737
AUC HT.SP600125 (HT-1080): 0.00478
AUC HT.TLCK (HT-1080): 0.1489
AUC HT.U0126 (HT-1080): −0.02627
HT.atoc (AUC) (HT-1080): −0.006276
HT.bCarotene (AUC) (HT-1080): 0.00393
HT.deferox (AUC) (HT-1080): 0.1428
HT.digoxin (AUC) (HT-1080): 0.1311
HT.trolox (AUC) (HT-1080): 0.01328
HT.zVAD (AUC) (HT-1080): 0.03817
AUC, modulator HT.3MA (HT-1080): 0.007208
AUC, modulator HT.ALLN (HT-1080): 0.03277

COC(=O)c1ccc([C@@H]2c3[nH]c4ccccc4c3C[C@@H](C(=O)OC)N2C(=O)CCl)cc1 [RSL3, reference compound]
AUC, modulator BJ.3MA (BJeLR): 0.09104
AUC, modulator BJ.ALLN (BJeLR): 0.01266
AUC, modulator BJ.Boc D (BJeLR): 0.03832
AUC, modulator BJ.CHX (BJeLR): 0.1841
AUC, modulator BJ.Co2+ (BJeLR): 0.1091
AUC, modulator BJ.DPQ (BJeLR): 0.03115
AUC, modulator BJ.Gd3+ (BJeLR): 0.02448
AUC, modulator BJ.LNAME (BJeLR): 0.02932
AUC, modulator BJ.Lmin/NAD+ (BJeLR): 0.3858
AUC, modulator BJ.Lmin (BJeLR): 0.3462
AUC, modulator BJ.NAD+ (BJeLR): 0.04136
AUC, modulator BJ.NMMA (BJeLR): 0.007806
AUC, modulator BJ.Nec-1 (BJeLR): 0.2379
AUC, modulator BJ.Pepstatin (BJeLR): −0.0008093
AUC, modulator BJ.TLCK (BJeLR): 0.2732
AUC, modulator BJ.atoc (BJeLR): 0.3601
AUC, modulator BJ.trolox (BJeLR): 0.3731
AUC, modulator BJ.zVAD (BJeLR): 0.00586
AUC HT.ATA (HT-1080): −0.04539
AUC HT.ActD (HT-1080): −0.08579
AUC HT.BHA (HT-1080): 0.3798
AUC HT.BHT (HT-1080): 0.2444
AUC HT.BocD (HT-1080): −0.01184
AUC HT.CHX (HT-1080): −0.05099
AUC HT.Co2+ (HT-1080): −0.1948
AUC HT.CspA (HT-1080): −0.1268
AUC HT.DPQ (HT-1080): 0.1653
AUC HT.EGTA (HT-1080): 0.03696
AUC HT.Gd3+ (HT-1080): −0.01265
AUC HT.LNAME (HT-1080): −0.01081
AUC HT.Lmim (HT-1080): 0.3302
AUC HT.NAD+ (HT-1080): 0.007883
AUC HT.NMMA (HT-1080): −0.00551
AUC HT.Nec-1 (HT-1080): 0.07095
AUC HT.Pepstatin (HT-1080): −0.01327
AUC HT.SP600125 (HT-1080): −0.1319
AUC HT.TLCK (HT-1080): 0.3152
AUC HT.U0126 (HT-1080): 0.3972
HT.atoc (AUC) (HT-1080): 0.4471
HT.bCarotene (AUC) (HT-1080): −0.01346
HT.deferox (AUC) (HT-1080): 0.3508
HT.digoxin (AUC) (HT-1080): −0.1463
HT.trolox (AUC) (HT-1080): 0.4213
HT.zVAD (AUC) (HT-1080): −0.01599
AUC, modulator HT.3MA (HT-1080): −0.07471
AUC, modulator HT.ALLN (HT-1080): −0.03802
